In patent US20170197935A1, “INHIBITORS OF DNA GYRASE FOR THE TREATMENT OF BACTERIAL INFECTIONS” (Vitas Pharma Research Private Limited, priority 2012, published 2017):
In brackets after ≈: the same amount, converted by molar mass. Like-named read-outs stand apart in the source and are kept apart here.

Tests used:
Format in all cases: cell-based
[1] = system: K. pneumoniae (ATCC 700603); assay: MIC by microbroth dilution, K. pneumoniae ATCC 700603; conditions: Klebsiella pneumoniae, ATCC700603, Formula I compounds
Procedure: (§1) Shown below are the microbiological activities of representative compounds of Formula I of the invention. The compounds were tested by the microbroth dilution method (National committee for Clinical Laboratory Standards, 2011, M07-08) and the Minimum Inhibitory Concentration (MIC) was determined.
(§2) Analysis of microbiological activity of compounds shown below are the microbiological activities of representative compounds of Formula II of the invention. The compounds were tested by the microbroth dilution method as per the reference in Example 1.

[2] = system: Moraxella catarrhalis (ATCC 8176); assay: MIC by microbroth dilution, Moraxella catarrhalis ATCC 8176; conditions: ATCC8176
Procedure: (§3) Shown below are the microbiological activities of representative compounds of Formula I of the invention. The compounds were tested by the microbroth dilution method (National committee for Clinical Laboratory Standards, 2011, […]-08) and the Minimum Inhibitory Concentration (MIC) was determined.

[3] = system: Enterococcus faecalis (ATCC 29212); assay: MIC by microbroth dilution, Enterococcus faecalis ATCC 29212; conditions: ATCC29212
Procedure: as §3

[4] = system: Staphylococcus aureus (ATCC 29213); assay: MIC by microbroth dilution, Staphylococcus aureus ATCC 29213; conditions: ATCC29213
Procedure: as §3

[5] = system: Methicillin resistant Staphylococcus aureus (ATCC 33591); assay: MIC by microbroth dilution, MRSA ATCC 33591
Procedure: as §1, §2

[6] = system: E. coli (ATCC 25922); assay: MIC by microbroth dilution, E. coli ATCC 25922; conditions: Escherichia coli
Procedure: as §1, §2

[7] = system: Streptococcus pneumoniae (ATCC 6301); assay: MIC by microbroth dilution, Streptococcus pneumoniae ATCC 6301; conditions: ATCC6301
Procedure: as §3

[8] = ATCC33591, Formula I compounds, read-out: MIC Methicillin resistant Staphylococcus aureus (ATCC 33591)
[9] = ATCC25922, Formula I compounds, read-out: MIC E. coli (ATCC 25922)
[10] = Formula II compounds, read-out: Minimum Inhibitory Concentration (MIC) MRSA ATCC 33591
[11] = ATCC25922, Formula II compounds, read-out: Minimum Inhibitory Concentration (MIC) E. coli ATCC 25922

COc1ccc2ncc(C#N)c(CCN3C4CCC3CC(NCc3cc5c(cn3)OCS5)C4)c2c1 (stereo not shown) [VT-03-00014]
MIC [1]: > 128 µg/mL | MIC [2]: 4 µg/mL (≈ 8.2 µM) | MIC [3]: 4 µg/mL (≈ 8.2 µM) | MIC [4]: 2 µg/mL (≈ 4.1 µM) | MIC [5, 8]: 4 µg/mL (≈ 8.2 µM) | MIC [6, 9]: 32 µg/mL (≈ 65.6 µM) | MIC [7]: 2 µg/mL (≈ 4.1 µM)

COc1ccc2ncc(C#N)c(CCN3C4CCC3CC(NS(=O)(=O)c3ccccc3C)C4)c2c1 (stereo not shown) [VT-03-00017]
MIC [2]: > 16 µg/mL | MIC [3]: > 64 µg/mL | MIC [4]: > 32 µg/mL | MIC [5, 8]: > 32 µg/mL | MIC [6, 9]: > 32 µg/mL | MIC [7]: > 16 µg/mL

COc1ccc2ncc(C#N)c(CCN3C4CCC3CC(NS(=O)(=O)c3ccc5c(c3)OCCO5)C4)c2c1 (stereo not shown) [VT-03-00021]
MIC [1]: > 32 µg/mL | MIC [2]: 2 µg/mL (≈ 3.74 µM) | MIC [3]: 2 µg/mL (≈ 3.74 µM) | MIC [4]: 0.25 µg/mL (≈ 0.468 µM) | MIC [5, 8]: 0.12 µg/mL (≈ 0.224 µM) | MIC [6, 9]: 16 µg/mL (≈ 29.9 µM) | MIC [7]: 1 µg/mL (≈ 1.87 µM)

COc1ccc2ncc(C#N)c(CCN3C4CCC3CC(NCc3ccc5c(c3)OCCO5)C4)c2c1 (stereo not shown) [VT-03-00021a]
MIC [2]: 2 µg/mL (≈ 4.13 µM) | MIC [3]: 2 µg/mL (≈ 4.13 µM) | MIC [4]: ≤ 0.03 µg/mL | MIC [5, 8]: 0.06 µg/mL (≈ 0.124 µM) | MIC [6, 9]: 16 µg/mL (≈ 33 µM) | MIC [7]: 0.12 µg/mL (≈ 0.248 µM)

COc1ccc2ncc(C#N)c(CCN3C4CCC3CC(NS(=O)(=O)c3ccc5ccccc5c3)C4)c2c1 (stereo not shown) [VT-03-00022]
MIC [2]: 4 µg/mL (≈ 7.6 µM) | MIC [3]: 4 µg/mL (≈ 7.6 µM) | MIC [4]: 1 µg/mL (≈ 1.9 µM) | MIC [5, 8]: 2 µg/mL (≈ 3.8 µM) | MIC [6, 9]: > 64 µg/mL | MIC [7]: 2 µg/mL (≈ 3.8 µM)

COc1ccc2ncc(C#N)c(CCN3C4CCC3CC(NC(=O)c3ccc5c(c3)OCCO5)C4)c2c1 (stereo not shown) [VT-03-00024]
MIC [2]: 8 µg/mL (≈ 16 µM) | MIC [3]: 8 µg/mL (≈ 16 µM) | MIC [4]: 1 µg/mL (≈ 2.01 µM) | MIC [5, 8]: 2 µg/mL (≈ 4.01 µM) | MIC [6, 9]: > 32 µg/mL | MIC [7]: 2 µg/mL (≈ 4.01 µM)

COc1ccc2ncc(C#N)c(CCN3C4CCC3CC(NCc3ccc5c(c3)NCCS5)C4)c2c1 (stereo not shown) [VT-03-00026a]
MIC [2]: 4 µg/mL (≈ 8.01 µM) | MIC [3]: 8 µg/mL (≈ 16 µM) | MIC [4]: 1 µg/mL (≈ 2 µM) | MIC [5, 8]: 2 µg/mL (≈ 4 µM) | MIC [6, 9]: 16 µg/mL (≈ 32 µM) | MIC [7]: 2 µg/mL (≈ 4 µM)

COc1ccc2ncc(C#N)c(CCN3C4CCC3CC(NCc3cc5c(cn3)OCCO5)C4)c2c1 (stereo not shown) [VT-03-00027]
MIC [2]: 8 µg/mL (≈ 16.5 µM) | MIC [3]: 4 µg/mL (≈ 8.24 µM) | MIC [4]: 2 µg/mL (≈ 4.12 µM) | MIC [5, 8]: 4 µg/mL (≈ 8.24 µM) | MIC [6, 9]: > 32 µg/mL | MIC [7]: 2 µg/mL (≈ 4.12 µM)

COc1ccc2c(c1)c(CCN1CCC(NCc3ccc4c(c3)NC(=O)CO4)CC1)c(C#N)c(=O)n2C [VT-03-00042]
MIC [4]: > 16 µg/mL | MIC [5, 8]: > 16 µg/mL | MIC [6, 9]: > 32 µg/mL

COc1ccc2c(c1)c(CCN1CCC(NCc3ccc4c(c3)OCCO4)CC1)c(C#N)c(=O)n2C [VT-03-00043]
MIC [4]: 16 µg/mL (≈ 32.7 µM) | MIC [5, 8]: > 16 µg/mL | MIC [6, 9]: > 32 µg/mL

COc1ccc2ncc(C#N)c(CCN3CCC(NCc4ccc(O)c(OC)c4)CC3)c2c1 [VT-03-00046]
MIC [4]: 16 µg/mL (≈ 35.8 µM) | MIC [5, 8]: > 16 µg/mL | MIC [6, 9]: > 32 µg/mL

COc1ccc2ncc(C#N)c(CCN3CCC(NCc4cc(OC)c(O)c([N+](=O)[O-])c4)CC3)c2c1 [VT-03-00060]
MIC [2]: > 32 µg/mL | MIC [4]: > 4 µg/mL | MIC [5, 8]: > 4 µg/mL | MIC [6, 9]: > 32 µg/mL

COc1ccc2ncc(=O)n(CCN3CCC(NCc4ccc([N+](=O)[O-])c(C)c4)CC3)c2c1 [VT-03-00067]
MIC [1]: 32 µg/mL (≈ 70.9 µM) | MIC [2]: 2 µg/mL (≈ 4.43 µM) | MIC [4]: 0.12 µg/mL (≈ 0.266 µM) | MIC [5, 8]: 0.5 µg/mL (≈ 1.11 µM) | MIC [6, 9]: 16 µg/mL (≈ 35.4 µM) | MIC [7]: 0.25 µg/mL (≈ 0.554 µM)

COc1ccc2ncc(C#N)c(CCN3[C@@H]4CC[C@H]3CC(NCc3ccc(C)c([N+](=O)[O-])c3)C4)c2c1 (stereo partly shown) [VT-03-00069]
MIC [4]: > 4 µg/mL | MIC [5, 8]: > 4 µg/mL | MIC [6, 9]: > 4 µg/mL

COc1ccc2ncc(C#N)c(CCN3[C@@H]4CC[C@H]3CC(NCc3cc5c(c([N+](=O)[O-])c3)OCO5)C4)c2c1 (stereo partly shown) [VT-03-00070]
MIC [4]: > 4 µg/mL | MIC [5, 8]: > 4 µg/mL | MIC [6, 9]: > 4 µg/mL

COc1ccc2ncc(C#N)c(CCN3CCC(NCc4cc([N+](=O)[O-])c(C)cc4C)CC3)c2c1 [VT-03-00072]
MIC [4]: > 4 µg/mL | MIC [5, 8]: > 4 µg/mL | MIC [6, 9]: > 4 µg/mL

COc1ccc2ncc(C#N)c(CCN3[C@@H]4CC[C@H]3CC(NCc3ccc([N+](=O)[O-])s3)C4)c2c1 (stereo partly shown) [VT-03-00074]
MIC [2]: 2 µg/mL (≈ 4.19 µM) | MIC [3]: 8 µg/mL (≈ 16.8 µM) | MIC [4]: 1 µg/mL (≈ 2.09 µM) | MIC [5, 8]: 2 µg/mL (≈ 4.19 µM) | MIC [6, 9]: 32 µg/mL (≈ 67 µM) | MIC [7]: 2 µg/mL (≈ 4.19 µM)

COc1ccc2ncc(C#N)c(CCN3CCC(NCc4ncc([N+](=O)[O-])[nH]4)CC3)c2c1 [VT-03-00078]
MIC [4]: > 4 µg/mL | MIC [6, 9]: > 32 µg/mL

COc1ccc2ncc(C#N)c(CCN3CCC(NCc4csc([N+](=O)[O-])n4)CC3)c2c1 [VT-03-00080]
MIC [2]: > 4 µg/mL | MIC [3]: 4 µg/mL (≈ 8.84 µM) | MIC [4]: 0.25 µg/mL (≈ 0.552 µM) | MIC [5, 8]: 1 µg/mL (≈ 2.21 µM) | MIC [6, 9]: 32 µg/mL (≈ 70.7 µM) | MIC [7]: 2 µg/mL (≈ 4.42 µM)

COc1ccc2ncc(C#N)c(CCN3CCC(NCc4ccc([N+](=O)[O-])cn4)CC3)c2c1 [VT-03-00081]
MIC [5, 8]: 1 µg/mL (≈ 2.24 µM) | MIC [6, 9]: > 32 µg/mL

COc1ccc2ncc(C#N)c(CCN3CCC(NCc4ccc(C)c([N+](=O)[O-])c4)(C(N)=O)CC3)c2c1 [VT-03-00083]
MIC [4]: 0.06 µg/mL (≈ 0.119 µM) | MIC [5, 8]: 0.12 µg/mL (≈ 0.239 µM) | MIC [6, 9]: 4 µg/mL (≈ 7.96 µM)

COc1ccc2ncc(C#N)c(CCN3CC(CNCc4ccc(C)c([N+](=O)[O-])c4)C3)c2c1 [VT-03-00084]
MIC [2]: 2 µg/mL (≈ 4.49 µM) | MIC [3]: 2 µg/mL (≈ 4.49 µM) | MIC [4]: 0.5 µg/mL (≈ 1.12 µM) | MIC [5, 8]: 0.5 µg/mL (≈ 1.12 µM) | MIC [6, 9]: 8 µg/mL (≈ 18 µM) | MIC [7]: 0.25 µg/mL (≈ 0.561 µM)

CCc1ccc2ncc(=O)n(CCN3CCC(NCc4ccc(C)c(F)c4)CC3)c2c1 [VT-03-00112]
MIC [5, 10]: 0.125 µg/mL (≈ 0.296 µM) | MIC [6, 11]: 2 µg/mL (≈ 4.73 µM)

Cc1ccc(CNC2CCN(CCn3c(=O)cnc4ccc(C(=O)O)cc43)CC2)cc1[N+](=O)[O-] [VT-03-00124]
MIC [6, 11]: 2 µg/mL (≈ 4.3 µM)

COc1ccc2ncc(=O)n(CCN3CCC(NCc4ccc(C)c([N+](=O)[O-])c4)CC3)c2n1 [VT-03-00125]
MIC [5, 10]: > 4 µg/mL | MIC [6, 11]: 32 µg/mL (≈ 70.7 µM)

COc1ccc2ncc(=O)n(CCN3CC[C@H](NCc4ccc(C)c([N+](=O)[O-])c4)[C@@H](O)C3)c2c1 [VT-03-00135]
MIC [6, 11]: 8 µg/mL (≈ 17.1 µM)
